# According to patent publication US9579380B2, “Microporation of tissue for delivery of bioactive agents” (priority 1996, dated 2017):
# Assays:
# [1] = Morphine delivery through porated volar forearm with positive pressure gradient, venous blood morphine; conditions: solution on porated volar forearm
# Text: A solution of morphine is applied to a porated area on the volar forearm of the human subjects. A positive pressure gradient is used to provide a basal delivery rate of the morphine into the body, as determined by assay of venous blood draws at appropriate time intervals for the presence of morphine. […] Upon demand, an additional pressure bolus is applied to result in a spike in the delivery of the morphine. The additional pressure bolus is achieved in one test by use of ultrasound; or in another experiment by the use of a pressure spike.
# healthy male volunteers = test: Alprostadil delivery through micropores on the penis shaft with ultrasonic transducer, clinical responses; assay type: in vivo, human; conditions: both subjects
# Method: Alprostadil, or PGE1, is a prostaglandin used therapeutically to treat male erectile dysfunction via it's vasodilator behavior. The standard delivery mode for this drug is a direct injection into the base of the penis or via a suppository inserted into the urethra. A set of experiments were conducted with two healthy male volunteers. […] A concentrated solution of alprostadil was placed in a small reservoir patch placed on the poration site, an ultrasonic transducer was then placed on the top of the reservoir and activated and the subject's erectile and other clinical responses were recorded on video tape. Both subjects developed a significant amount of engorgement of the penis, estimated as achieving 70% of more of a full erection at the dose applied. In addition, a malar flush response to the systemic levels of the drug delivered was observed. […] Both the erectile response and the malar flush provide evidence of the delivery of a clinically active amount of the drug, a well know vasodilator.
# [2] = test system: volar forearm of a healthy volunteer; test: Heparin delivery through micropores, passive or with iontophoresis, with microscopic examination of the site
# Method: A heparin solution was applied to skin porated to a depth of approximately 100 μm, allowing either passive diffusion or coupled with iontophoresis (about 1 mA/cm^2) that was applied for a sufficient period of time to transport the heparin through the micropores into the underlying tissues. […] An experiment was conducted wherein a site on the volar forearm of a healthy volunteer was prepared by creating a matrix of 36 micropores within a 1 square cm area. A small reservoir containing a sodium heparin solution and the negative electrode for an iontophoretic system was attached to the site. The positive electrode was attached to the subject's skin some distance away using a hydrogel electrode obtained from Iomed, a commercial supplier of iontophoretic systems. The system was run for ten minutes at 0.2 milliamperes per square cm.
# [3] = human
# [4] = test system: healthy non-diabetic subject; test: Insulin delivery through porated skin, finger stick blood glucose; assay type: in vivo, human
# Text: Insulin, like many compounds normally present in the healthy individual, is a polypeptide which must be maintained in individuals, such as diabetics who need exogenous insulin, at both a basal level and be given in a pulsatile bolus fashion in response to meals and the subject's activity levels. Currently this is achieved via subcutaneous injections of fast acting and slow acting formulations. Because of the molecular weight of insulin, typically ˜6000, it is not able to be delivered at clinically useful levels with traditional transdermal or transmucosal methods. However, by opening the micropores through the barrier layers of the skin or mucosa, a clear path is provided allowing the delivery of the insulin into the viable tissues wherein the interstitial fluid present in these tissues will allow diffusion (including osmotically driven) of the insulin to and into the lymph system and capillary bed, delivering clinically useful amounts. A concentrated insulin solution containing 3500 IU/ml of recombinant human insulin purchased from Boehringer-Mannhein Co., was applied in a reservoir to a porated of the subject's skin on the volar forearm covering 4 square cm. The healthy, person, non-diabetic, subject fasted for 14 hours prior to the start of the experiment. Intravenous and finger stick blood samples were drawn periodically prior to and after the delivery phase began and assayed for glucose, insulin and C-peptide.
# The use of liposomes, lipid complexes, microspheres including nanospheres, PEGellated compounds (compounds combined with polyethylene glycol) and other microparticles as part of a drug delivery system is well developed for many different specific applications. In particular, when dealing with a compound which is easily broken down by the endogenous components in the body's tissues such as protease, nuclease, or carbohydrase enzymes in the skin, tissues, the macrophages or other cells present in the blood stream or lymph, increases in bio-availability and/or sustained […]. A repeat of this procedure with the addition of ultrasound operating at 44 khz, and 0.2 watts/square cm indicated a more rapid delivery of the insulin as evidenced by the subject's glucose levels which dropped from 109 mg/dl to 78 mg/dl less than 30 minutes after the delivery began. As in the case of example 45, for heparin delivery, a low current iontophoretic system can be coupled with the micropores to facilitate a greater flux rate and provide the ability to modulate this flux rate by varying the current, allowing a delivery on demand type of system to be built. Previous work with insulin has typically shown that relatively high iontophoretic currents are required to overcome the strong barrier properties of the intact stratum corneum. […]
compound,measurement,setting,value
CN1CC[C@]23c4c5ccc(O)c4O[C@H]2[C@@H](O)C=C[C@H]3[C@H]1C5 [morphine],basal level of morphine in venous blood,[1],3 to 6 ng/mL
"CCCCC[C@H](O)/C=C/[C@H]1[C@H](O)CC(=O)[C@@H]1CCCCCCC(=O)O [alprostadil, Alprostadil]","engorgement of the penis, estimated share of a full erection","healthy male volunteers; 12 to 36 micropores, roughly 100 microns deep, on 1 square cm, concentrated solution plus ultrasonic transducer",≥ 70%
same,malar flush response to systemic levels of the drug,healthy male volunteers; over a 30 to 60 minute delivery period,profound malar flush
heparin,clotting of red cells in collected ISF,"[2]; 36 micropores in 1 square cm, iontophoresis 0.2 milliamperes per square cm for ten minutes",no clotting took place
same,microscopic examination of the site,"[2]; 36 micropores in 1 square cm, sodium heparin solution, iontophoresis 0.2 milliamperes per square cm for ten minutes",vasodilation of the capillaries
same,microscopic examination of the in vivo site,"[2]; skin porated to approximately 100 μm, passive diffusion and iontophoresis (about 1 mA/cm^2)",increased capillary dilation and permeability
"CN(C)c1ccc2nc3ccc(=[N+](C)C)cc-3sc2c1 [methylene blue, Methylene blue]",lag time of pulse of indicator molecules on application of sonic energy,[3],< 0.1 s
same,shutoff lag of pulse of indicator molecules on turning off sonic energy,[3],< 0.1 s
same,level of dye solution in receiver medium (no visual indication of dye flux),[3]; 5 min,< 0.0015 % (v/v)
insulin,time to depression of glucose levels,"[4]; 3500 IU/ml solution on 4 square cm porated volar forearm, passive",approximately 4 hours
same,finger stick blood glucose after depression,"[4]; 3500 IU/ml solution on 4 square cm porated volar forearm, passive, fasted 14 hours, from 100 mg/dl at the start, over a ten minute cycle",67 mg/dL
same,time to glucose drop after delivery began,[4]; with ultrasound at 44 khz and 0.2 watts/square cm,less than 30 minutes
same,glucose level after drop,"[4]; with ultrasound at 44 khz and 0.2 watts/square cm, from 109 mg/dl",78 mg/dL
